Measurements reported in ChEMBL document CHEMBL1201861, “Genomics of Drug Sensitity in Cancer screening data, Wellcome Trust Sanger Institute”.

Key:
Format in all cases: functional, cell-based
SCC-4 = test: cells; conditions: Homo sapiens
Description: SANGER: Inhibition of human SCC-4 cell growth in a cell viability assay.

A2058 = test: cells; conditions: Homo sapiens
Description: SANGER: Inhibition of human A2058 cell growth in a cell viability assay.

SW1088 = test: cells; conditions: Homo sapiens
Description: SANGER: Inhibition of human SW1088 cell growth in a cell viability assay.

CaR-1 = test: cells; conditions: Homo sapiens
Description: SANGER: Inhibition of human CaR-1 cell growth in a cell viability assay.

HSC-2 = test: cells; conditions: Homo sapiens
Description: SANGER: Inhibition of human HSC-2 cell growth in a cell viability assay.

U-118-MG = test: cells; conditions: Homo sapiens
Description: SANGER: Inhibition of human U-118-MG cell growth in a cell viability assay.

Capan-2 = test: cells; conditions: Homo sapiens
Description: SANGER: Inhibition of human Capan-2 cell growth in a cell viability assay.

NCI-H1623 = test: cells; conditions: Homo sapiens
Description: SANGER: Inhibition of human NCI-H1623 cell growth in a cell viability assay.

NCI-H2170 = test: cells; conditions: Homo sapiens
Description: SANGER: Inhibition of human NCI-H2170 cell growth in a cell viability assay.

Calu-3 = test: cells; conditions: Homo sapiens
Description: SANGER: Inhibition of human Calu-3 cell growth in a cell viability assay.

FaDu = test: cells; conditions: Homo sapiens
Description: SANGER: Inhibition of human FADU cell growth in a cell viability assay.

SK-N-AS = test: cells; conditions: Homo sapiens
Description: SANGER: Inhibition of human SK-N-AS cell growth in a cell viability assay.

HCT-15 = test: cells; conditions: Homo sapiens
Description: SANGER: Inhibition of human HCT-15 cell growth in a cell viability assay.

NB12 = test: cells; conditions: Homo sapiens
Description: SANGER: Inhibition of human NB12 cell growth in a cell viability assay.

D-392MG = test: cells; conditions: Homo sapiens
5637 = test: cells; conditions: Homo sapiens
Description: SANGER: Inhibition of human 5637 cell growth in a cell viability assay.

NCI-H28 = test: cells; conditions: Homo sapiens
Description: SANGER: Inhibition of human NCI-H28 cell growth in a cell viability assay.

BEN = test: cells; conditions: Homo sapiens
Description: SANGER: Inhibition of human BEN cell growth in a cell viability assay.

SW948 = test: cells; conditions: Homo sapiens
Description: SANGER: Inhibition of human SW948 cell growth in a cell viability assay.

8305C = test: cells; conditions: Homo sapiens
Description: SANGER: Inhibition of human 8305C cell growth in a cell viability assay.

SCC-9 = test: cells; conditions: Homo sapiens
Description: SANGER: Inhibition of human SCC-9 cell growth in a cell viability assay.

COLO-680N = test: cells; conditions: Homo sapiens
Description: SANGER: Inhibition of human COLO-680N cell growth in a cell viability assay.

SW1990 = test: cells; conditions: Homo sapiens
Description: SANGER: Inhibition of human SW1990 cell growth in a cell viability assay.

SiHa = test: cells; conditions: Homo sapiens
Description: SANGER: Inhibition of human SiHa cell growth in a cell viability assay.

NCI-H596 = test: cells; conditions: Homo sapiens
Description: SANGER: Inhibition of human NCI-H596 cell growth in a cell viability assay.

HO-1-N-1 = test: cells; conditions: Homo sapiens
Description: SANGER: Inhibition of human HO-1-N-1 cell growth in a cell viability assay.

HSC-3 = test: cells; conditions: Homo sapiens
Description: SANGER: Inhibition of human HSC-3 cell growth in a cell viability assay.

639-V = test: cells; conditions: Homo sapiens
Description: SANGER: Inhibition of human 639-V cell growth in a cell viability assay.

23132-87 = test: cells; conditions: Homo sapiens
Description: SANGER: Inhibition of human 23132-87 cell growth in a cell viability assay.

MDA-MB-415 = test: cells; conditions: Homo sapiens
HT-1376 = test: cells; conditions: Homo sapiens
Description: SANGER: Inhibition of human HT-1376 cell growth in a cell viability assay.

HCC1569 = test: cells; conditions: Homo sapiens
Description: SANGER: Inhibition of human HCC1569 cell growth in a cell viability assay.

SW1783 = test: cells; conditions: Homo sapiens
Description: SANGER: Inhibition of human SW1783 cell growth in a cell viability assay.

NCI-H630 = test: cells; conditions: Homo sapiens
Description: SANGER: Inhibition of human NCI-H630 cell growth in a cell viability assay.

NY = test: cells; conditions: Homo sapiens
Description: SANGER: Inhibition of human NY cell growth in a cell viability assay.

SK-OV-3 = test: cells; conditions: Homo sapiens
Description: SANGER: Inhibition of human SK-OV-3 cell growth in a cell viability assay.

SN12C = test: cells; conditions: Homo sapiens
Description: SANGER: Inhibition of human SN12C cell growth in a cell viability assay.

D-247MG = test: cells; conditions: Homo sapiens
Description: SANGER: Inhibition of human D-247MG cell growth in a cell viability assay.

MFE-280 = test: cells; conditions: Homo sapiens
Description: SANGER: Inhibition of human MFE-280 cell growth in a cell viability assay.

UACC-893 = test: cells; conditions: Homo sapiens
Description: SANGER: Inhibition of human UACC-893 cell growth in a cell viability assay.

769-P = test: cells; conditions: Homo sapiens
Description: SANGER: Inhibition of human 769-P cell growth in a cell viability assay.

VMRC-RCZ = test: cells; conditions: Homo sapiens
Description: SANGER: Inhibition of human VMRC-RCZ cell growth in a cell viability assay.

NCI-H358 = test: cells; conditions: Homo sapiens
Description: SANGER: Inhibition of human NCI-H358 cell growth in a cell viability assay.

NCI-H1793 = test: cells; conditions: Homo sapiens
Description: SANGER: Inhibition of human NCI-H1793 cell growth in a cell viability assay.

SW13 = test: cells; conditions: Homo sapiens
Description: SANGER: Inhibition of human SW13 cell growth in a cell viability assay.

BT-20 = test: cells; conditions: Homo sapiens
Description: SANGER: Inhibition of human BT-20 cell growth in a cell viability assay.

CAPAN-1 = test: cells; conditions: Homo sapiens
Description: SANGER: Inhibition of human CAPAN-1 cell growth in a cell viability assay.

MDA-MB-361 = test: cells; conditions: Homo sapiens
HCC2157 = test: cells; conditions: Homo sapiens
Description: SANGER: Inhibition of human HCC2157 cell growth in a cell viability assay.

BFTC-905 = test: cells; conditions: Homo sapiens
Description: SANGER: Inhibition of human BFTC-905 cell growth in a cell viability assay.

ACHN = test: cells; conditions: Homo sapiens
Description: SANGER: Inhibition of human ACHN cell growth in a cell viability assay.

G-401 = test: cells; conditions: Homo sapiens
Description: SANGER: Inhibition of human G-401 cell growth in a cell viability assay.

SK-MEL-30 = test: cells; conditions: Homo sapiens
Description: SANGER: Inhibition of human SK-MEL-30 cell growth in a cell viability assay.

SF-295 = test: cells; conditions: Homo sapiens
Description: SANGER: Inhibition of human SF295 cell growth in a cell viability assay.

DoTc2-4510 = test: cells; conditions: Homo sapiens
UMC-11 = test: cells; conditions: Homo sapiens
Description: SANGER: Inhibition of human UMC-11 cell growth in a cell viability assay.

SR = test: cells; conditions: Homo sapiens
Description: SANGER: Inhibition of human SR cell growth in a cell viability assay.

LC4-1 = test: cells; conditions: Homo sapiens
Description: SANGER: Inhibition of human LC4-1 cell growth in a cell viability assay.

NCI-H719 = test: cells; conditions: Homo sapiens
Description: SANGER: Inhibition of human NCI-H719 cell growth in a cell viability assay.

WSU-NHL = test: cells; conditions: Homo sapiens
Description: SANGER: Inhibition of human WSU-NHL cell growth in a cell viability assay.

IM-9 = test: SANGER: Inhibition of human IM-9 cell growth in a cell viability assay.
UACC-812 = test: cells; conditions: Homo sapiens
Description: SANGER: Inhibition of human UACC-812 cell growth in a cell viability assay.

RPMI-6666 = test: cells; conditions: Homo sapiens
Description: SANGER: Inhibition of human RPMI-6666 cell growth in a cell viability assay.

NCI-H1882 = test: cells; conditions: Homo sapiens
Description: SANGER: Inhibition of human NCI-H1882 cell growth in a cell viability assay.

SCLC-21H = test: cells; conditions: Homo sapiens
Description: SANGER: Inhibition of human SCLC-21H cell growth in a cell viability assay.

## O=c1cc(N2CCOCC2)oc2c(-c3cccc4c3sc3ccccc34)cccc12
SCC-4
  IC50: > 2 µM
A2058
  IC50: > 2 µM
SW1088
  IC50: > 2 µM
CaR-1
  IC50: > 2 µM
HSC-2
  IC50: > 2 µM
U-118-MG
  IC50: > 2 µM
Capan-2
  IC50: > 2 µM
NCI-H1623
  IC50: > 2 µM
NCI-H2170
  IC50: > 2 µM
Calu-3
  IC50: > 2 µM
FaDu
  IC50: > 2 µM
SK-N-AS
  IC50: 0.622 µM
HCT-15
  IC50: > 2 µM
NB12
  IC50: > 2 µM
D-392MG
  IC50: > 2 µM
5637
  IC50: > 2 µM
NCI-H28
  IC50: > 2 µM
BEN
  IC50: > 2 µM
SW948
  IC50: > 2 µM
8305C
  IC50: > 2 µM
SCC-9
  IC50: > 2 µM
COLO-680N
  IC50: > 2 µM
SW1990
  IC50: > 2 µM
SiHa
  IC50: > 2 µM
NCI-H596
  IC50: > 2 µM
HO-1-N-1
  IC50: > 2 µM
HSC-3
  IC50: > 2 µM
639-V
  IC50: 1.44 µM
23132-87
  IC50: > 2 µM
MDA-MB-415
  IC50: > 2 µM
HT-1376
  IC50: > 2 µM
HCC1569
  IC50: > 2 µM
SW1783
  IC50: > 2 µM
NCI-H630
  IC50: > 2 µM
NY
  IC50: > 2 µM
SK-OV-3
  IC50: > 2 µM
SN12C
  IC50: > 2 µM
D-247MG
  IC50: > 2 µM
MFE-280
  IC50: > 2 µM
UACC-893
  IC50: > 2 µM
769-P
  IC50: > 2 µM
VMRC-RCZ
  IC50: > 2 µM
NCI-H358
  IC50: > 2 µM
NCI-H1793
  IC50: 1.46 µM
SW13
  IC50: > 2 µM
BT-20
  IC50: > 2 µM
CAPAN-1
  IC50: > 2 µM
MDA-MB-361
  IC50: > 2 µM
HCC2157
  IC50: > 2 µM
BFTC-905
  IC50: > 2 µM
ACHN
  IC50: > 2 µM
G-401
  IC50: > 2 µM
SK-MEL-30
  IC50: > 2 µM
SF-295
  IC50: > 2 µM
DoTc2-4510
  IC50: > 2 µM
UMC-11
  IC50: > 2 µM

## N#C/C(=C1/Nc2ccccc2S1)c1ccnc(NCCc2cccnc2)n1
SCC-4
  IC50: > 8 µM
SR
  IC50: 1.88 µM
A2058
  IC50: > 8 µM
SW1088
  IC50: > 8 µM
CaR-1
  IC50: > 8 µM
LC4-1
  IC50: 7.65 µM
HSC-2
  IC50: > 8 µM
U-118-MG
  IC50: > 8 µM
Capan-2
  IC50: 6.67 µM
NCI-H719
  IC50: > 8 µM
NCI-H1623
  IC50: > 8 µM
NCI-H2170
  IC50: > 8 µM
Calu-3
  IC50: > 8 µM
FaDu
  IC50: > 8 µM
SK-N-AS
  IC50: > 8 µM
HCT-15
  IC50: > 8 µM
NB12
  IC50: > 8 µM
D-392MG
  IC50: > 8 µM
5637
  IC50: > 8 µM
NCI-H28
  IC50: 3.29 µM
BEN
  IC50: > 8 µM
SW948
  IC50: > 8 µM
WSU-NHL
  IC50: > 8 µM
8305C
  IC50: > 8 µM
SCC-9
  IC50: > 8 µM
COLO-680N
  IC50: > 8 µM
SW1990
  IC50: > 8 µM
SiHa
  IC50: > 8 µM
NCI-H596
  IC50: > 8 µM
HO-1-N-1
  IC50: > 8 µM
HSC-3
  IC50: > 8 µM
639-V
  IC50: 4.84 µM
23132-87
  IC50: 7.1 µM
MDA-MB-415
  IC50: > 8 µM
HT-1376
  IC50: 7.32 µM
HCC1569
  IC50: 1.96 µM
IM-9
  IC50: > 8 µM
SW1783
  IC50: 6.17 µM
UACC-812
  IC50: > 8 µM
RPMI-6666
  IC50: > 8 µM
NY
  IC50: 2.76 µM
SK-OV-3
  IC50: > 8 µM
SN12C
  IC50: > 8 µM
MFE-280
  IC50: > 8 µM
UACC-893
  IC50: > 8 µM
NCI-H1882
  IC50: > 8 µM
769-P
  IC50: > 8 µM
VMRC-RCZ
  IC50: 7.77 µM
SCLC-21H
  IC50: > 8 µM
NCI-H358
  IC50: 1.9 µM
NCI-H1793
  IC50: > 8 µM
SW13
  IC50: > 8 µM
BT-20
  IC50: > 8 µM
CAPAN-1
  IC50: > 8 µM
MDA-MB-361
  IC50: 6.49 µM
HCC2157
  IC50: > 8 µM
BFTC-905
  IC50: 3.37 µM
ACHN
  IC50: 2.35 µM
G-401
  IC50: 2.82 µM
SK-MEL-30
  IC50: > 8 µM
SF-295
  IC50: 3.04 µM
DoTc2-4510
  IC50: 2.08 µM
UMC-11
  IC50: > 8 µM

## Cc1ccc(NC(=O)c2cccc(C(C)(C)C#N)c2)cc1Nc1ccc2ncn(C)c(=O)c2c1
SR
  IC50: > 4 µM
LC4-1
  IC50: > 4 µM
NCI-H719
  IC50: > 4 µM
NB12
  IC50: > 4 µM
D-392MG
  IC50: 0.356 µM
WSU-NHL
  IC50: > 4 µM
IM-9
  IC50: > 4 µM
UACC-812
  IC50: > 4 µM
RPMI-6666
  IC50: > 4 µM
D-247MG
  IC50: > 4 µM
NCI-H1882
  IC50: > 4 µM
SCLC-21H
  IC50: > 4 µM
HCC2157
  IC50: > 4 µM

## CCn1c(-c2nonc2N)nc2cnc(Oc3cccc(NC(=O)c4ccc(OCCN5CCOCC5)cc4)c3)cc21 [GSK-269962A]
SR
  IC50: < 0.00977 µM
LC4-1
  IC50: > 2.5 µM
NCI-H719
  IC50: > 2.5 µM
NB12
  IC50: > 2.5 µM
D-392MG
  IC50: 1.43 µM
WSU-NHL
  IC50: > 2.5 µM
IM-9
  IC50: > 2.5 µM
UACC-812
  IC50: > 2.5 µM
RPMI-6666
  IC50: > 2.5 µM
D-247MG
  IC50: 0.628 µM
NCI-H1882
  IC50: > 2.5 µM
SCLC-21H
  IC50: > 2.5 µM
HCC2157
  IC50: > 2.5 µM

## Cc1[nH]c(/C=C2\C(=O)Nc3ccc(S(=O)(=O)Cc4c(Cl)cccc4Cl)cc32)c(C)c1C(=O)N1CCC[C@@H]1CN1CCCC1 [PHA-665752]
SR
  IC50: > 2 µM
LC4-1
  IC50: > 2 µM
NCI-H719
  IC50: > 2 µM
WSU-NHL
  IC50: > 2 µM
IM-9
  IC50: > 2 µM
UACC-812
  IC50: > 2 µM
RPMI-6666
  IC50: > 2 µM
D-247MG
  IC50: > 2 µM
NCI-H1882
  IC50: > 2 µM
SCLC-21H
  IC50: > 2 µM
HCC2157
  IC50: > 2 µM

## CCCS(=O)(=O)Nc1ccc(F)c(C(=O)c2c[nH]c3ncc(Cl)cc23)c1F [PLX-4720]
SCC-4
  IC50: > 10 µM
A2058
  IC50: 4.72 µM
SW1088
  IC50: > 10 µM
CaR-1
  IC50: > 10 µM
HSC-2
  IC50: > 10 µM
U-118-MG
  IC50: > 10 µM
Capan-2
  IC50: > 10 µM
NCI-H1623
  IC50: > 10 µM
NCI-H2170
  IC50: > 10 µM
Calu-3
  IC50: > 10 µM
FaDu
  IC50: > 10 µM
SK-N-AS
  IC50: > 10 µM
HCT-15
  IC50: > 10 µM
NB12
  IC50: > 10 µM
D-392MG
  IC50: > 10 µM
5637
  IC50: > 10 µM
NCI-H28
  IC50: > 10 µM
BEN
  IC50: > 10 µM
SW948
  IC50: > 10 µM
8305C
  IC50: 5.19 µM
SCC-9
  IC50: > 10 µM
COLO-680N
  IC50: > 10 µM
SW1990
  IC50: > 10 µM
SiHa
  IC50: > 10 µM
NCI-H596
  IC50: > 10 µM
HO-1-N-1
  IC50: > 10 µM
HSC-3
  IC50: 8.07 µM
639-V
  IC50: > 10 µM
23132-87
  IC50: > 10 µM
MDA-MB-415
  IC50: > 10 µM
HT-1376
  IC50: > 10 µM
HCC1569
  IC50: > 10 µM
SW1783
  IC50: > 10 µM
NCI-H630
  IC50: > 10 µM
NY
  IC50: > 10 µM
SK-OV-3
  IC50: > 10 µM
SN12C
  IC50: > 10 µM
D-247MG
  IC50: > 10 µM
MFE-280
  IC50: > 10 µM
UACC-893
  IC50: > 10 µM
769-P
  IC50: > 10 µM
VMRC-RCZ
  IC50: > 10 µM
NCI-H358
  IC50: 2.92 µM
NCI-H1793
  IC50: > 10 µM
SW13
  IC50: > 10 µM
BT-20
  IC50: > 10 µM
CAPAN-1
  IC50: > 10 µM
MDA-MB-361
  IC50: > 10 µM
HCC2157
  IC50: > 10 µM
BFTC-905
  IC50: > 10 µM
ACHN
  IC50: > 10 µM
G-401
  IC50: > 10 µM
SK-MEL-30
  IC50: 1.33 µM
SF-295
  IC50: > 10 µM
DoTc2-4510
  IC50: > 10 µM
UMC-11
  IC50: > 10 µM
